Converted amounts (≈) assume the structure as drawn. The source made the active and inactive calls. The calls are words filed in the database; no cut-off is given here.
Key:
Mycobacterium kansasii [1] = assay: Antimycobacterial activity against Mycobacterium kansasii 6509/80 after 14 days by micromethod; format: functional; details: 6509/80, 336 h
Mycobacterium avium [2] = assay: Antimycobacterial activity against Mycobacterium avium 330/88 after 21 days by micromethod; format: functional; details: 330/88, 504 h
Mycobacterium kansasii [3] = assay: Antimycobacterial activity against Mycobacterium kansasii 6509/96 after 21 days by micromethod; format: functional; details: 6509/96, 504 h
Candida tropicalis [4] = assay: Antifungal activity against Candida tropicalis 156 after 48 hrs by microdilution broth method; format: functional; details: Candida tropicalis, 156, 48 h
Mycobacterium kansasii [5] = assay: Antimycobacterial activity against Mycobacterium kansasii 6509/96 after 14 days by micromethod; format: functional; details: 6509/96, 336 h
Enterococcus faecalis [6] = assay: Antibacterial activity against gram-positive Enterococcus faecalis J 14365/08 after 24 hrs by microdilution broth method; format: functional; details: J 14365/08, 24 h
Pichia kudriavzevii [7] = assay: Antifungal activity against Candida krusei E28 after 48 hrs by microdilution broth method; format: functional; details: E28, 48 h
[8] = Cytotoxicity against mouse bone marrow macrophages after overnight incubation by MTT assay; details: BMDM
[9] = Selectivity index, ratio of IC50 for human HepG2 cells to MIC for Mycobacterium tuberculosis H37Rv 331/88; format: toxicity; details: read-out: Selectivity Index
Escherichia coli [10] = assay: Antibacterial activity against gram-negative Escherichia coli CCM 4517 after 48 hrs by microdilution broth method; format: functional; details: CCM 4517, 48 h
Mycobacterium avium [11] = assay: Antimycobacterial activity against Mycobacterium avium 330/88 after 14 days by micromethod; format: functional; details: 330/88, 336 h
Klebsiella pneumoniae [12] = assay: Antibacterial activity against gram-negative Klebsiella pneumoniae D 11750/08 after 24 to 48 hrs by microdilution broth method; format: functional, organism-based
Nakaseomyces glabratus [13] = assay: Antifungal activity against Candida glabrata 20/I after 24 hrs by microdilution broth method; format: functional
Mycobacterium kansasii [14] = assay: Antimycobacterial activity against Mycobacterium kansasii 6509/80 after 7 days by micromethod; format: functional; details: 6509/80, 168 h
Staphylococcus aureus [15] = assay: Antibacterial activity against gram-positive methicillin-resistant Staphylococcus aureus H 5996/08 after 48 hrs by microdilution broth method; format: functional; details: H 5996/08, 48 h
Enterococcus faecalis [16] = assay: Antibacterial activity against gram-positive Enterococcus faecalis J 14365/08 after 48 hrs by microdilution broth method; format: functional; details: J 14365/08, 48 h
Pseudomonas aeruginosa = assay: Antibacterial activity against gram-negative Pseudomonas aeruginosa CCM 1961 after 48 hrs by microdilution broth method; format: functional, organism-based
Candida albicans = assay: Antifungal activity against Candida albicans ATCC 44859 after 24 to 48 hrs by microdilution broth method; format: functional, organism-based
Aspergillus fumigatus = assay: Antifungal activity against Aspergillus fumigatus 231 after 24 to 48 hrs by microdilution broth method; format: functional, organism-based
Candida tropicalis [17] = assay: Antifungal activity against Candida tropicalis 156 after 24 hrs by microdilution broth method; format: functional; details: Candida tropicalis, 156, 24 h
[18] = Selectivity index, ratio of IC50 for human HepG2 cells to MIC for Mycobacterium kansasii 6509/80; format: toxicity; details: read-out: Selectivity Index
[19] = Selectivity index, ratio of IC50 for human HepG2 cells to MIC for gram-positive Staphylococcus aureus CCM 4516/08; format: toxicity; details: read-out: Selectivity Index
Mycobacterium kansasii [20] = assay: Antimycobacterial activity against Mycobacterium kansasii 6509/80 after 21 days by micromethod; format: functional; details: 6509/80, 504 h
[21] = tested on: Mycobacterium tuberculosis; assay: Antimycobacterial activity against Mycobacterium tuberculosis H37Rv 331/88 after 21 days by micromethod; format: functional; details: H37Rv 331/88, 504 h
MONO-MAC-6 [22] = assay: Cytostatic activity against human MONO-MAC-6 cells incubated overnight followed by compound wash measured after 72 hrs by MTT assay; format: ADME, cell-based; details: MONO-MAC-6, 72 h
HepG2 [23] = assay: Cytotoxicity against human HepG2 cells after overnight incubation by MTT assay; format: cell-based
Nakaseomyces glabratus [24] = assay: Antifungal activity against Candida glabrata 20/I after 48 hrs by microdilution broth method; format: functional
[25] = tested on: Staphylococcus epidermidis; assay: Antibacterial activity against gram-positive Staphylococcus epidermidis H 6966/08 after 24 hrs by microdilution broth method; format: functional; details: H 6966/08, 24 h
[26] = Selectivity index, ratio of IC50 for human HepG2 cells to MIC for Mycobacterium avium 330/88; format: toxicity; details: read-out: Selectivity Index
Staphylococcus aureus [27] = assay: Antibacterial activity against gram-positive Staphylococcus aureus CCM 4516/08 after 24 hrs by microdilution broth method; format: functional; details: CCM 4516/08, 24 h
Mycobacterium kansasii [28] = assay: Antimycobacterial activity against Mycobacterium kansasii 6509/96 after 7 days by micromethod; format: functional; details: 6509/96, 168 h
Trichosporon asahii = assay: Antifungal activity against Trichosporon asahii 1188 after 24 to 48 hrs by microdilution broth method; format: functional, organism-based
Staphylococcus aureus [29] = assay: Antibacterial activity against gram-positive methicillin-resistant Staphylococcus aureus H 5996/08 after 24 hrs by microdilution broth method; format: functional; details: H 5996/08, 24 h
[30] = tested on: Staphylococcus epidermidis; assay: Antibacterial activity against gram-positive Staphylococcus epidermidis H 6966/08 after 48 hrs by microdilution broth method; format: functional; details: H 6966/08, 48 h
Lichtheimia corymbifera = assay: Antifungal activity against Absidia corymbifera 272 after 24 to 48 hrs by microdilution broth method; format: functional, organism-based
Klebsiella pneumoniae [31] = assay: Antibacterial activity against extended spectrum beta-lactamase-positive Klebsiella pneumoniae J 14368/08 after 24 to 48 hrs by microdilution broth method; format: functional, organism-based
Escherichia coli [32] = assay: Antibacterial activity against gram-negative Escherichia coli CCM 4517 after 24 hrs by microdilution broth method; format: functional; details: CCM 4517, 24 h
[33] = tested on: Trichophyton mentagrophytes; assay: Antifungal activity against Trichophyton mentagrophytes 445 after 72 hrs by microdilution broth method; format: functional; details: Trichophyton mentagrophytes, 445, 72 h
MONO-MAC-6 [34] = assay: Cytotoxicity against human MONO-MAC-6 cells after overnight incubation by MTT assay; format: functional, cell-based
Pichia kudriavzevii [35] = assay: Antifungal activity against Candida krusei E28 after 24 hrs by microdilution broth method; format: functional; details: E28, 24 h
HepG2 [36] = assay: Cytostatic activity against human HepG2 cells incubated overnight followed by compound wash measured after 72 hrs by MTT assay; format: ADME, cell-based; details: HepG2, 72 h
[37] = tested on: Trichophyton mentagrophytes; assay: Antifungal activity against Trichophyton mentagrophytes 445 after 120 hrs by microdilution broth method; format: functional; details: Trichophyton mentagrophytes, 445, 120 h
[38] = tested on: Mycobacterium tuberculosis; assay: Antimycobacterial activity against Mycobacterium tuberculosis H37Rv 331/88 after 14 days by micromethod; format: functional; details: H37Rv 331/88, 336 h
[39] = Selectivity index, ratio of IC50 for human HepG2 cells to MIC for Mycobacterium kansasii 6509/96; format: toxicity; details: read-out: Selectivity Index
Staphylococcus aureus [40] = assay: Antibacterial activity against gram-positive Staphylococcus aureus CCM 4516/08 after 48 hrs by microdilution broth method; format: functional; details: CCM 4516/08, 48 h

With O=C(N/N=C/c1ccc(Cl)cc1)c1ccc(C(F)(F)F)cc1 the MIC (Mycobacterium kansasii [1]) was 16 µM (≈ 5.23 µg/mL), the MIC (Mycobacterium avium [2]) was > 125 µM and the MIC (Mycobacterium kansasii [3]) was 16 µM (≈ 5.23 µg/mL). It also gave an MIC (Candida tropicalis [4]) of 125 µM (≈ 40.8 µg/mL), an MIC (Mycobacterium kansasii [5]) of 16 µM (≈ 5.23 µg/mL) and an MIC (Enterococcus faecalis [6]) of 62.5 µM (≈ 20.4 µg/mL). The MIC (Pichia kudriavzevii [7]) was 62.5 µM (≈ 20.4 µg/mL), the IC50 [8] was 7.05 µM and the selectivity ratio [9] was > 6.25. The MIC (Escherichia coli [10]) was > 125 µM, the MIC (Mycobacterium avium [11]) was > 125 µM and the Activity (Klebsiella pneumoniae [12]) was “inactive”. For the same molecule, the MIC (Nakaseomyces glabratus [13]) was > 125 µM, the MIC (Mycobacterium kansasii [14]) was 16 µM (≈ 5.23 µg/mL) and the MIC (Staphylococcus aureus [15]) was 62.5 µM (≈ 20.4 µg/mL). For the same molecule, the MIC (Enterococcus faecalis [16]) was > 125 µM, the Activity (Pseudomonas aeruginosa) was “inactive” and the Activity (Candida albicans) was “inactive”. For the same molecule, the Activity (Aspergillus fumigatus) was “inactive”, the MIC (Candida tropicalis [17]) was 125 µM (≈ 40.8 µg/mL) and the selectivity ratio [18] was > 6.25. For the same molecule, the selectivity ratio [19] was > 1.6, the MIC (Mycobacterium kansasii [20]) was 16 µM (≈ 5.23 µg/mL) and the MIC [21] was 16 µM (≈ 5.23 µg/mL). For the same molecule, the IC50 (MONO-MAC-6 [22]) was > 100 µM, the IC50 (HepG2 [23]) was > 100 µM and the MIC (Nakaseomyces glabratus [24]) was > 125 µM. The MIC [25] was 31.2 µM (≈ 10.2 µg/mL), the selectivity ratio [26] was > 6.25 and the MIC (Staphylococcus aureus [27]) was 62.5 µM (≈ 20.4 µg/mL). For the same molecule, the MIC (Mycobacterium kansasii [28]) was 16 µM (≈ 5.23 µg/mL), the Activity (Trichosporon asahii) was “inactive” and the MIC (Staphylococcus aureus [29]) was 62.5 µM (≈ 20.4 µg/mL). The MIC [30] was 62.5 µM (≈ 20.4 µg/mL), the Activity (Lichtheimia corymbifera) was “inactive” and the Activity (Klebsiella pneumoniae [31]) was “inactive”. For the same molecule, the MIC (Escherichia coli [32]) was > 125 µM, the MIC [33] was 125 µM (≈ 40.8 µg/mL) and the IC50 (MONO-MAC-6 [34]) was > 100 µM. The MIC (Pichia kudriavzevii [35]) was 62.5 µM (≈ 20.4 µg/mL), the IC50 (HepG2 [36]) was > 100 µM and the MIC [37] was 125 µM (≈ 40.8 µg/mL). The MIC [38] was 16 µM (≈ 5.23 µg/mL), the selectivity ratio [39] was > 6.25 and the MIC (Staphylococcus aureus [40]) was 62.5 µM (≈ 20.4 µg/mL).

From ChEMBL document CHEMBL4177650, “Synthesis and biological evolution of hydrazones derived from 4-(trifluoromethyl)benzohydrazide” (Bioorg Med Chem Lett, 2017)
